Activity data for six compounds are collected here from ChEMBL document CHEMBL4359910, “From random to rational: A discovery approach to selective subnanomolar inhibitors of human carbonic anhydrase IV based on the Castagnoli-Cushman multicomponent reaction” (Eur J Med Chem, 2019).

One data set has as its system T98G. The data set can be described thus: Cytotoxicity against human T98G cells measured after 48 hrs under normoxia condition in presence of CoCl2 by MTT assay. The class given is functional, cell-based.
Data set [1] deals with ARPE-19. The data set is described as follows: Cytotoxicity against human ARPE19 cells at 30 to 300 uM measured after 48 hrs under normoxia condition in presence of CoCl2 by MTT assay relative to control. Type of data set: cell-based. Conditions: arpe-19, 48 h.
Data set [2] concerns ARPE-19. The data set can be described thus: Cytotoxicity against human ARPE19 cells at 300 uM measured after 48 hrs under normoxia condition in presence of CoCl2 by MTT assay. Conditions: arpe-19, 48 h. Type of data set: cell-based.

For `CC(=O)OCCNC(=O)[C@H]1CC(=O)N(c2ccc(S(N)(=O)=O)cc2)[C@@H]1c1ccc(Cl)cc1`, the Activity entry is “Dose-dependent effect” in the data set on T98G and 80% in the data set on ARPE-19 [1].
Turning to `NS(=O)(=O)c1ccc(N2C(=O)C[C@H](C(=O)NCCCn3ccnc3)[C@H]2c2ccc(Cl)cc2)cc1` (racemic), the Activity result is “Dose-dependent effect” with T98G and 80% in the data set on ARPE-19 [1].
Consider `CN1CCN(CCCNC(=O)[C@H]2CC(=O)N(c3ccc(S(N)(=O)=O)cc3)[C@@H]2c2ccc(Cl)cc2)CC1` (racemic), for which the Activity entry was “Dose-dependent effect” in the data set with T98G and “Toxic” with ARPE-19 [2].
Turning to `NS(=O)(=O)c1ccc(N2C(=O)C[C@H](C(=O)NCCCN3CCCC3)[C@H]2c2ccc(Cl)cc2)cc1` (racemic), the figures for the Activity result in the data set with T98G and in the data set on ARPE-19 [1] were “Dose-dependent effect” and 80%, respectively.
For `NS(=O)(=O)c1ccc(N2C(=O)C[C@H](C(=O)NCCC(=O)O)[C@H]2c2ccc(Cl)cc2)cc1` (racemic), the Activity entry with T98G is “Dose-dependent effect”.
Same read-out and setting: the value for `NS(=O)(=O)c1ccc(N2C(=O)C[C@H](C(=O)NCCCO)[C@H]2c2ccc(Cl)cc2)cc1` (racemic) was “Dose-dependent effect”.
